biological target: human A2A receptor (A2AR) (Homo sapiens, UniProt P29274); assay: Luciferase reporter assay (HEK293-A2AR-luc2p/CRE/Hygro cells, 3 nM CGS21680); type: cell-based; conditions: 3 nM CGS21680, 5 h incubation
Outline: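 HEK293 cells stably expressing A2AR with a CRE-luc2P reporter were seeded in 1% FBS with 1 U/mL adenosine deaminase. After 18 h, cells got 3 nM CGS21680 plus antagonist at 0.1–10000 nM for 5 h, followed by a luciferase readout. IC50 is relative to the 3 nM CGS21680 signal, set as 100%.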

human A2A receptor (A2AR), sequence (P29274 whole entry): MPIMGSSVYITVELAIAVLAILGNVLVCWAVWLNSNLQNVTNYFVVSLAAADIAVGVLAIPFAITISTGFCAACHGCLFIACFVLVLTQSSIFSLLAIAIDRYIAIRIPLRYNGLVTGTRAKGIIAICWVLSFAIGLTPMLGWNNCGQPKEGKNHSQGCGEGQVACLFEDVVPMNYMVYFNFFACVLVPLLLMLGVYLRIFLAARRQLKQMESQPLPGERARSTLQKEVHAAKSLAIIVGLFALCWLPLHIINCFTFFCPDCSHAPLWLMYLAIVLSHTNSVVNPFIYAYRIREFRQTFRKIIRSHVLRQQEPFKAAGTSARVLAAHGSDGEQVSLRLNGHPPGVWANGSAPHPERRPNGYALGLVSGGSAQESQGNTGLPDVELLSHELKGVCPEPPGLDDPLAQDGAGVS

Row | Compound | IC50 [nM]
1 | CN1CCN(CCCOc2ccc(N3CCN(C(=O)[C@@](C)(c4ccccc4)n4ncc5c4nc(N)n4nc(-c6ccco6)nc54)CC3)cc2)CC1 [Compound A82b, (R)-2-(5-amino-2-(furan-2-yl)-7H-pyrazolo[4,3-e][1,2,4]triazolo[1,5-c]pyrimidin-7-yl)-1-(4-(4-(3-(4-methylpiperazin-1-yl)propoxy)phenyl)piperazin-1-yl)-2-phenylpropan-1-one] | 4.9
2 | CC(C(=O)N1CCN(c2ccc(C(=O)NCC3(O)COC3)cc2)CC1)(c1ccccc1)n1ncc2c1nc(N)n1nc(-c3ccco3)nc21 (stereo not drawn) [Compound A83, 4-(4-(2-(5-amino-2-(furan-2-yl)-7H-pyrazolo[4,3-e][1,2,4]triazolo[1,5-c]pyrimidin-7-yl)-2-phenylpropanoyl)piperazin-1-yl)-N-((3-hydroxyoxetan-3-yl)methyl)benzamide] | 3.7
3 | CCC(C(=O)N1CCN(c2ccc(OCCOC)cc2)CC1)(c1ccccc1)n1ncc2c1nc(N)n1nc(-c3ccco3)nc21 (stereo not drawn) [Compound A84, 2-(5-amino-2-(furan-2-yl)-7H-pyrazolo[4,3-e][1,2,4]triazolo[1,5-c]pyrimidin-7-yl)-1-(4-(4-(2-methoxyethoxy)phenyl)piperazin-1-yl)-2-phenylbutan-1-one] | 28.3
4 | CC(C(=O)N1CCN(c2ccc(OCCCN3CCCCC3)cc2)CC1)(c1ccccc1)n1ncc2c1nc(N)n1nc(-c3ccco3)nc21 (stereo not drawn) [Compound A85, 2-(5-amino-2-(furan-2-yl)-7H-pyrazolo[4,3-e][1,2,4]triazolo[1,5-c]pyrimidin-7-yl)-2-phenyl-1-(4-(4-(3-(piperidin-1-yl)propoxy)phenyl)piperazin-1-yl)propan-1-one] | 11.6
5 | COCCOc1ccc(N2CCN(C(=O)C(C)(c3cccc(F)c3)n3ncc4c3nc(N)n3nc(-c5ccco5)nc43)CC2)cc1 (stereo not drawn) [Compound A86, 2-(5-amino-2-(furan-2-yl)-7H-pyrazolo[4,3-e][1,2,4]triazolo[1,5-c]pyrimidin-7-yl)-2-(3-fluorophenyl)-1-(4-(4-(2-methoxyethoxy)phenyl)piperazin-1-yl)propan-1-one] | 6.8
6 | COCCOc1ccc(N2CCN(C(=O)C(C)(c3ccccc3F)n3ncc4c3nc(N)n3nc(-c5ccco5)nc43)CC2)cc1 (stereo not drawn) [Compound A87, 2-(5-amino-2-(furan-2-yl)-7H-pyrazolo[4,3-e][1,2,4]triazolo[1,5-c]pyrimidin-7-yl)-2-(2-fluorophenyl)-1-(4-(4-(2-methoxyethoxy)phenyl)piperazin-1-yl)propan-1-one] | 2
7 | CN(C)C(=O)c1cccc(N2CCN(C(=O)C(C)(c3ccccc3)n3ncc4c3nc(N)n3nc(-c5ccco5)nc43)CC2)c1 (stereo not drawn) [Compound A88, 3-(4-(2-(5-amino-2-(furan-2-yl)-7H-pyrazolo[4,3-e][1,2,4]triazolo[1,5-c]pyrimidin-7-yl)-2-phenylpropanoyl)piperazin-1-yl)-N,N-dimethylbenzamide] | 7
8 | CC(C(=O)N1CCN(c2cccc(C(=O)N3CCCCC3)c2)CC1)(c1ccccc1)n1ncc2c1nc(N)n1nc(-c3ccco3)nc21 (stereo not drawn) [Compound A89, 2-(5-amino-2-(furan-2-yl)-7H-pyrazolo[4,3-e][1,2,4]triazolo[1,5-c]pyrimidin-7-yl)-2-phenyl-1-(4-(3-(piperidine-1-carbonyl)phenyl)piperazin-1-yl)propan-1-one] | 13.8
9 | CC(C(=O)N1CCN(c2cccc(C(=O)NC3CCCCC3)c2)CC1)(c1ccccc1)n1ncc2c1nc(N)n1nc(-c3ccco3)nc21 (stereo not drawn) [Compound A90, 2-(5-amino-2-(furan-2-yl)-7H-pyrazolo[4,3-e][1,2,4]triazolo[1,5-c]pyrimidin-7-yl)-2-phenyl-1-(4-(3-(cyclohexanaminocarbonyl)phenyl)piperazin-1-yl)propan-1-one] | 14.1
10 | CC(C(=O)N1CCN(c2cccc(C(=O)NCC3(O)COC3)c2)CC1)(c1ccccc1)n1ncc2c1nc(N)n1nc(-c3ccco3)nc21 (stereo not drawn) [Compound A91, 3-(4-(2-(5-amino-2-(furan-2-yl)-7H-pyrazolo[4,3-e][1,2,4]triazolo[1,5-c]pyrimidin-7-yl)-2-phenylpropanoyl)piperazin-1-yl)-N-((3-hydroxyoxetan-3-yl)methyl)benzamide] | 3.3
11 | CNC(=O)c1ccc(N2CCN(C(=O)C(C)(c3ccccc3)n3ncc4c3nc(N)n3nc(-c5ccco5)nc43)CC2)cc1 (stereo not drawn) [Compound A92, 4-(4-(2-(5-amino-2-(furan-2-yl)-7H-pyrazolo[4,3-e][1,2,4]triazolo[1,5-c]pyrimidin-7-yl)-2-phenylpropanoyl)piperazin-1-yl)-N-methylbenzamide] | 2.7
12 | COCCOc1ccc(N2CCN(C(=O)C(C)(c3ccccc3OC)n3ncc4c3nc(N)n3nc(-c5ccco5)nc43)CC2)cc1 (stereo not drawn) [Compound A93, 2-(5-amino-2-(furan-2-yl)-7H-pyrazolo[4,3-e][1,2,4]triazolo[1,5-c]pyrimidin-7-yl)-1-(4-(4-(2-methoxyethoxy)phenyl)piperazin-1-yl)-2-(2-methoxyphenyl)propan-1-one] | 0.6
13 | CC(C(=O)N1CCN(c2ccccc2C(=O)NC2CCCCC2)CC1)(c1ccccc1)n1ncc2c1nc(N)n1nc(-c3ccco3)nc21 (stereo not drawn) [Compound A94, 2-(4-(2-(5-amino-2-(furan-2-yl)-7H-pyrazolo[4,3-e][1,2,4]triazolo[1,5-c]pyrimidin-7-yl)-2-phenylpropanoyl)piperazin-1-yl)-N-cyclohexylbenzamide] | 3.8
14 | COCCOc1ccc(N2CCN(C(=O)C(C)(c3ccccc3)n3ncc4c3nc(N)n3nc(-c5nccnc5C)nc43)CC2)cc1 (stereo not drawn) [Compound A95, 2-(5-amino-2-(3-methylpyrazin-2-yl)-7H-pyrazolo[4,3-e][1,2,4]triazolo[1,5-c]pyrimidin-7-yl)-1-(4-(4-(2-methoxyethoxy)phenyl)piperazin-1-yl)-2-phenylpropan-1-one] | 31.1
15 | CN(C)C(=O)c1ccccc1N1CCN(C(=O)C(C)(c2ccccc2)n2ncc3c2nc(N)n2nc(-c4ccco4)nc32)CC1 (stereo not drawn) [Compound A96, 2-(4-(2-(5-amino-2-(furan-2-yl)-7H-pyrazolo[4,3-e][1,2,4]triazolo[1,5-c]pyrimidin-7-yl)-2-phenylpropanoyl)piperazin-1-yl)-N,N-dimethylbenzamide] | 13.7
16 | COCCOc1ccc(N2CCN(C(=O)C(C)(Cc3ccccc3)n3ncc4c3nc(N)n3nc(-c5ccco5)nc43)CC2)cc1 (stereo not drawn) [Compound A97, 2-(5-amino-2-(furan-2-yl)-7H-pyrazolo[4,3-e][1,2,4]triazolo[1,5-c]pyrimidin-7-yl)-1-(4-(4-(2-methoxyethoxy)phenyl)piperazin-1-yl)-2-methyl-3-phenylpropan-1-one] | 335
17 | CC(C(=O)N1CCN(c2ccc(C(=O)NC3CCCCC3)cc2)CC1)(c1ccccc1)n1ncc2c1nc(N)n1nc(-c3ccco3)nc21 (stereo not drawn) [Compound A98, 4-(4-(2-(5-amino-2-(furan-2-yl)-7H-pyrazolo[4,3-e][1,2,4]triazolo[1,5-c]pyrimidin-7-yl)-2-phenylpropanoyl)piperazin-1-yl)-N-cyclohexylbenzamide] | 7.2
18 | CC(C(=O)N1CCN(c2ccccc2C(=O)N2CCCCC2)CC1)(c1ccccc1)n1ncc2c1nc(N)n1nc(-c3ccco3)nc21 (stereo not drawn) [Compound A99, 2-(5-amino-2-(furan-2-yl)-7H-pyrazolo[4,3-e][1,2,4]triazolo[1,5-c]pyrimidin-7-yl)-2-phenyl-1-(4-(2-(piperidine-1-carbonyl)phenyl)piperazin-1-yl)propan-1-one] | 28.6
19 | CC(C(=O)N1CCN(c2ccccc2C(=O)NCC2(O)COC2)CC1)(c1ccccc1)n1ncc2c1nc(N)n1nc(-c3ccco3)nc21 (stereo not drawn) [Compound A100, 2-(4-(2-(5-amino-2-(furan-2-yl)-7H-pyrazolo[4,3-e][1,2,4]triazolo[1,5-c]pyrimidin-7-yl)-2-phenylpropanoyl)piperazin-1-yl)-N-((3-hydroxyoxetan-3-yl)methyl)benzamide] | 25
20 | CC(C(=O)N1CCN(c2ccc(OCCN3CCCC3)cc2)CC1)(c1ccccc1)n1ncc2c1nc(N)n1nc(-c3ccco3)nc21 (stereo not drawn) [Compound A101, 2-(5-amino-2-(furan-2-yl)-7H-pyrazolo[4,3-e][1,2,4]triazolo[1,5-c]pyrimidin-7-yl)-2-phenyl-1-(4-(4-(2-(pyrrolidin-1-yl)ethoxy)phenyl)piperazin-1-yl)propan-1-one] | 3.9
21 | CC(C(=O)N1CCN(c2ccc(C(=O)N3CCCCC3)cc2)CC1)(c1ccccc1)n1ncc2c1nc(N)n1nc(-c3ccco3)nc21 (stereo not drawn) [Compound A102, 2-(5-amino-2-(furan-2-yl)-7H-pyrazolo[4,3-e][1,2,4]triazolo[1,5-c]pyrimidin-7-yl)-2-phenyl-1-(4-(4-(piperidine-1-carbonyl)phenyl)piperazin-1-yl)propan-1-one] | 9.2
22 | COCCOc1ccc(N2CCN(C(=O)C(C)(c3ccccc3C)n3ncc4c3nc(N)n3nc(-c5ccco5)nc43)CC2)cc1 (stereo not drawn) [Compound A103, 2-(5-amino-2-(furan-2-yl)-7H-pyrazolo[4,3-e][1,2,4]triazolo[1,5-c]pyrimidin-7-yl)-1-(4-(4-(2-methoxyethoxy)phenyl)piperazin-1-yl)-2-(o-tolyl)propan-1-one] | 1.7
23 | CN(C)C(=O)c1ccc(N2CCN(C(=O)C(C)(c3ccccc3)n3ncc4c3nc(N)n3nc(-c5ccco5)nc43)CC2)cc1 (stereo not drawn) [Compound A104, 4-(4-(2-(5-amino-2-(furan-2-yl)-7H-pyrazolo[4,3-e][1,2,4]triazolo[1,5-c]pyrimidin-7-yl)-2-phenylpropanoyl)piperazin-1-yl)-N,N-dimethylbenzamide] | 5.5
24 | COc1ccc(N2CCN(C(=O)C(C)(c3ccccc3)n3ncc4c3nc(N)n3nc(-c5ccco5)nc43)CC2)c(OC)c1 (stereo not drawn) [Compound A105, 2-(5-amino-2-(furan-2-yl)-7H-pyrazolo[4,3-e][1,2,4]triazolo[1,5-c]pyrimidin-7-yl)-1-(4-(2,4-dimethoxyphenyl)piperazin-1-yl)-2-phenylpropan-1-one] | 10.3
